The compounds below were run against AF2 neuropeptide receptor (assay: In vitro antihelminthic activity using AF2 Neuropeptide receptor binding assay in Caenorhabditis elegans).

IC50 [µM] | SMILES
4 | Cc1ccccc1-c1nn(-c2c(Cl)cc(Cl)cc2Cl)c(=N)s1
56 | N=c1sc(-c2ccccc2SC(F)(F)F)nn1-c1c(Cl)cc(C(F)(F)F)cc1Cl
8 | N=c1sc(-c2cccc(F)c2)nn1-c1c(Cl)cc(Cl)cc1Cl
> 100 | COC(=O)c1ccccc1-c1nn(-c2c(Cl)cc(C(F)(F)F)cc2Cl)c(=N)s1
0.37 | N=c1sc(-c2cc(F)ccc2F)nn1-c1c(Cl)cc(C(F)(F)F)cc1Cl
0.15 | N=c1sc(-c2ccccc2F)nn1-c1c(Cl)cc(C(F)(F)F)cc1Cl
47 | N=c1sc(-c2cc(CN)ccn2)nn1-c1c(Cl)cc(C(F)(F)F)cc1Cl
> 100 | N=c1sc(-c2c(F)cccc2C(F)(F)F)nn1-c1c(Cl)cc(C(F)(F)F)cc1Cl
20 | N=c1sc(-c2cccc(Br)n2)nn1-c1c(Cl)cc(C(F)(F)F)cc1Cl
2.6 | N=c1sc(-c2ccncn2)nn1-c1c(Cl)cc(C(F)(F)F)cc1Cl
11 | Cc1cccnc1-c1nn(-c2c(Cl)cc(C(F)(F)F)cc2Cl)c(=N)s1
0.14 | N=c1sc(-c2ccccn2)nn1-c1c(Cl)cc(Cl)cc1C(F)(F)F
4 | CCOC(=O)Oc1ccc(-c2nn(-c3c(Cl)cc(Cl)cc3Cl)c(=N)s2)cc1
5 | N=c1sc(-c2ccc([N+](=O)[O-])cc2)nn1-c1c(Cl)cc(Cl)cc1Cl
0.63 | N=c1sc(-c2cc([N+](=O)[O-])ccc2F)nn1-c1c(Cl)cc(C(F)(F)F)cc1Cl
4 | N=c1sc(-c2ccc(Br)cc2)nn1-c1c(Cl)cc(Cl)cc1Cl
4 | N=c1sc(-c2cccc(C(F)(F)F)c2F)nn1-c1c(Cl)cc(Cl)cc1Cl
20 | N=c1sc(-c2ccc(C(F)(F)F)cc2)nn1-c1c(Cl)cc(Cl)cc1Cl
1 | N=c1sc(-c2ccc(C(F)(F)F)cc2F)nn1-c1c(Cl)cc(Cl)cc1Cl
0.16 | N=c1sc(-c2cc(Cl)ccn2)nn1-c1c(Cl)cc(C(F)(F)F)cc1Cl
6 | N#Cc1ccc(-c2nn(-c3c(Cl)cc(Cl)cc3Cl)c(=N)s2)cc1
3 | N=c1sc(-c2ccccc2)nn1-c1c(Cl)cc(Cl)cc1Cl
0.4 | N=c1sc(-c2ccccn2)nn1-c1c(Cl)cc(Cl)cc1Cl
11 | COC(=O)c1ccc(-c2nn(-c3c(Cl)cc(Cl)cc3Cl)c(=N)s2)cc1

IC50 [µM] | SMILES
5 | N=c1sc(-c2ccc(Cl)cc2)nn1-c1c(Cl)cc(Cl)cc1Cl
0.13 | COC(=O)c1ccnc(-c2nn(-c3c(Cl)cc(C(F)(F)F)cc3Cl)c(=N)s2)c1
0.5 | N=c1sc(-c2ccccc2F)nn1-c1c(Cl)cc(Cl)cc1Cl
4 | N=c1sc(-c2ccc(O)cc2)nn1-c1c(Cl)cc(Cl)cc1Cl
4 | COc1ccc(OC)c(-c2nn(-c3c(Cl)cc(C(F)(F)F)cc3Cl)c(=N)s2)c1
0.01 | N#Cc1ccnc(-c2nn(-c3c(Cl)cc(C(F)(F)F)cc3Cl)c(=N)s2)c1
0.037 | CC(C)(C)c1cc(-c2nn(-c3c(Cl)cc(C(F)(F)F)cc3Cl)c(=N)s2)ccn1
5 | N=c1sc(-c2ccc(OC(F)(F)F)cc2)nn1-c1c(Cl)cc(Cl)cc1Cl
0.021 | N=c1sc(-c2cncc(C(F)(F)F)c2)nn1-c1c(Cl)cc(C(F)(F)F)cc1Cl
85 | N=c1sc(-c2ccccc2OC(F)(F)F)nn1-c1c(Cl)cc(C(F)(F)F)cc1Cl
0.1 | N=c1sc(-c2cc(C(F)(F)F)ccc2F)nn1-c1c(Cl)cc(Cl)cc1Cl
7 | Cc1ccc(-c2nn(-c3c(Cl)cc(Cl)cc3Cl)c(=N)s2)cc1
0.2 | N=c1sc(-c2cnccn2)nn1-c1c(Cl)cc(C(F)(F)F)cc1Cl
0.63 | N=c1sc(-c2cc(Br)ccc2F)nn1-c1c(Cl)cc(C(F)(F)F)cc1Cl
0.9 | N=c1sc(-c2ccc(F)cc2)nn1-c1c(Cl)cc(Cl)cc1Cl
0.063 | N=c1sc(-c2cc(C(F)(F)F)ccc2F)nn1-c1c(Cl)cc(C(F)(F)F)cc1Cl
40 | N=c1sc(-c2cccnc2)nn1-c1c(Cl)cc(Cl)cc1Cl
35 | N=c1sc(-c2cccnn2)nn1-c1c(Cl)cc(C(F)(F)F)cc1Cl
0.013 | N=c1sc(-c2ccnc([N+](=O)[O-])c2)nn1-c1c(Cl)cc(C(F)(F)F)cc1Cl
2.4 | N=c1sc(-c2ncc(C(F)(F)F)cc2Cl)nn1-c1c(Cl)cc(C(F)(F)F)cc1Cl
0.09 | N=c1sc(-c2ccccn2)nn1-c1c(Cl)cc(C(F)(F)F)cc1Cl
80 | COc1ccc(-c2nn(-c3c(Cl)cc(Cl)cc3Cl)c(=N)s2)cc1
70 | CC(=O)Nc1ccc(-c2nn(-c3c(Cl)cc(Cl)cc3Cl)c(=N)s2)cc1
